{"source": "paper PMC5399052", "about": "“Integrating in vitro data and physiologically based kinetic (PBK) modelling to assess the in vivo potential developmental toxicity of a series of phenols” (Archives of Toxicology, 2016)", "key": {"in vivo": {"test": "in vivo", "conditions": "female, rat GD11, allometrically scaled from GD20 value of Varma and Ramakrishnan [1985], read-out: CLPL, transplacental maternal-foetal clearance rate (converted)"}, "[1]": {"conditions": "rat at GD20; ref Varma and Ramakrishnan [1985]; cited from earlier work"}, "BeWo cells": {"test_system": "BeWo cells", "test": "In vitro placental transport study (BeWo b30 transwell)", "experimental": "BeWo cells (passages 28–31) were cultured in DMEM with […] and supplemented with 10% (v/v) heat-inactivated FCS, 2 mM L-glutamine, 10,000 U/ml penicillin and 10 mg/ml streptomycin and maintained in polystyrene cell culture flasks (Corning, Amsterdam, the Netherlands) in a 5% CO2-humidified atmosphere at 37 °C. Cells were harvested after exposure to a trypsin–EDTA solution. Next, the cells were seeded onto Transwell® inserts (0.4-µm pored polycarbonate membrane, 12 mm diameter), with a density of 10^5 cells/cm^2. Cell culture medium (0.5 and 1.5 ml in the apical and basolateral compartment, respectively) was changed daily.\nTransport experiments were performed 6 days post-seeding. The transport buffer consisted of HBSS with 30 mg/ml bovine serum albumin (apical compartment) and 10 mg/ml bovine serum albumin (basolateral compartment) representing mid- and late gestational maternal and embryonic/foetal rat plasma albumin levels, respectively (Honda et al. [2008]; Mcmullin et al. [2008]; Yeoh and Morgan [1974]). The transport experiments were performed for the same compounds and according to the same method as described for the Caco-2 transport experiments, except that only cell layers with a TEER value >190 Ω cm^2 were used for the transport experiments. The BeWo transport studies encompassed four independently performed experiments including two replicates in each assay. Samples were analysed by UPLC–PDA (see “Quantification of analytes” section) for the presence of the test compound and possible metabolites. The apparent permeability coefficients were calculated using the same method as described for the Caco-2 transport experiments."}, "whole embryo culture": {"test_system": "whole embryo culture", "conditions": "cited from earlier work"}, "[2]": {"conditions": "without cells; ref Strikwold et al. [2012]; cited from earlier work"}, "Caco-2 cells": {"test_system": "Caco-2 cells", "test": "in vitro", "conditions": "Caco-2", "experimental": "Caco-2 cells (passages 37–40) were cultured in DMEM containing 25 mM HEPES (pH 7.4) supplemented with 10% (v/v) heat-inactivated FCS, 4500 mg/l glucose, 2 mM L-glutamine, 1% (v/v) minimal essential medium non-essential amino acids, 10,000 U/ml penicillin and 10 mg/ml streptomycin and maintained in polystyrene cell culture flasks (Corning, Amsterdam, the Netherlands) in a 5% CO2-humidified atmosphere at 37 °C. Cells were harvested after exposure to a trypsin–EDTA solution. Next, the cells were seeded onto Transwell® inserts (0.4 µm pored polycarbonate membrane, 12 mm diameter), at a density of 10^5 cells/cm^2. Cell culture medium (0.5 and 1.5 ml in the apical and basolateral compartment, respectively) was changed every two days.\nTransport experiments were performed between day 20 and 23 post-seeding. Prior to the transport experiments, the cell culture medium was removed and cells were equilibrated in HBSS for 30–45 min in a 5% CO2-humidified atmosphere at 37 °C. In these 45 min, the integrity of the cell monolayer was examined by measuring the Trans Epithelial Electrical Resistance (TEER) of the cell layer using a Millicell ERS-2 Volt–Ohm Meter (Millipore, USA). Only cell layers with a TEER value between 500 and 1000 Ω cm^2 were used for the transport experiments. The transport buffer for the apical compartment consisted of HBSS containing 10 mM HEPES (pH 6.5) and 10 mM sodium taurocholate and the transport buffer for the basolateral compartment consisted of HBSS (pH 7.4) with 30 mg/ml bovine serum albumin. At first, 1.5 ml pre-warmed (37 °C) transport buffer was added to the basolateral compartment. Then, the transport experiments were started by adding 0.5 ml pre-warmed transport buffer containing the test compound (100 µM) to the apical compartment. After 60-min incubation in a 5% CO2-humidified atmosphere at 37 °C, a 75 µl sample was taken from the basolateral compartment and then from the apical compartment. Each sample was added to 150 µl ice-cold methanol, vortexed and put on ice immediately. […] Samples were analysed by UPLC–PDA (see “Quantification of analytes” section) for the presence of the test compound and possible metabolites.\nTEER values were also measured at the end of the transport experiment, during the first washing step and compared to the TEER values measured before the transport experiment in order to assess toxicity of the test compound to the cell monolayer. […]\nThe apparent permeability coefficients (P app; cm/s) were calculated using the following algorithm: Papp=ΔQ/Δt/A∗C0 where P app is the apparent permeability coefficient (cm/s), ΔQ/Δt (nmol/s) is the amount of the test compound transported to the receiver chamber in a certain time period, A is the transwell membrane surface area (cm^2) and C 0 is the initial concentration of the test compound in the donor compartment (µM).\nIn order to assess the validity of the P app calculations for this experiment, the linearity of transport from the apical to the basolateral side was verified by taking samples from the basolateral side at t = 15, 30, 60 and 90 min, at a test concentration of 100 µM. […] The recovery of the test compound in each transport experiment was calculated with a mass balance equation, taking into account the amount of the test compound in the apical and basolateral compartment and the amount in the cells and/or filter of the Transwell® insert."}, "rat liver microsomes": {"test_system": "rat liver microsomes", "test": "in vitro", "experimental": "The formation of glucuronide metabolites of the p-substituted phenols was investigated in incubations with rat liver microsomes. […] To obtain maximum glucuronidation activity, the microsomes were activated by preincubating the incubation mixture with 0.025 mg/ml alamethicin added from a 200 times concentrated stock solution in methanol, during 15 min on ice (Fisher et al. [2000]). Subsequently, the incubations were started after a 1-min preincubation at 37 °C by addition of the substrate from a 200 times concentrated stock solution in DMSO and incubated in a shaking water bath at 37 °C for 45 min. The reactions were terminated by addition of ice-cold acetonitrile (20% v/v). In the blank incubation mixtures, UDPGA was omitted. Samples were analysed by UPLC–PDA (see “Quantification of analytes” section). No reference standards of the glucuronide metabolites were commercially available. […] At first, retention times from the UPLC–PDA chromatograms of the parent compound of the blank incubation were compared with the retention times of newly appearing peaks in chromatograms of the incubation mixtures, as the glucuronide conjugates are expected to elute earlier compared with their parent compounds due do their increased hydrophilicity. […] For this purpose, a volume of 10 µl of the incubation mixture of the glucuronidation assay (that was not terminated by the addition of ice-cold acetonitrile) was added to 90 µl of 200 mM potassium phosphate (pH 6.2). Then, 4 µl of glucuronidase (200 units/ml) was added, and the mixtures were incubated for 60 min in a shaking water bath at 37 °C. The reactions were terminated by addition of ice-cold acetonitrile (20% v/v) and were put on ice. Control samples were treated under the same conditions, but without glucuronidase.\nThe conditions of the incubation assays were optimised to obtain linear reaction rates with respect to incubation time and protein concentration and non-limiting cofactor levels were applied. […] To obtain maximum glucuronidation activity, the microsomes were activated by preincubating the incubation mixture with 0.025 mg/ml alamethicin added from a 200 times concentrated stock solution in methanol, during 15 min on ice (Fisher et al. [2000]).\nKinetic constants for the glucuronidation of the p-substituted phenols were derived by fitting the data to the standard Michaelis–Menten equation; v=Vmax∗S/Km+[S] in which [S] represents the substrate concentration, V max the maximum velocity and K m the Michaelis–Menten constant for the formation of the glucuronide metabolites. Data analysis was accomplished using GraphPad Prism 5.0 software (GraphPad, San Diego, CA, USA). […] The in vivo K m value was assumed to be the same to the in vitro K m value.\nSamples from the BeWo and Caco-2 transport experiments were centrifuged at 13,000 rpm at 5 °C for 15 min. Next 7.5 µl of the supernatant of each sample was analysed by UPLC (Waters Acquity). Samples from the glucuronidation assays were centrifuged at 15,000 rpm at 5 °C for 5 min. […] All samples, except those from transport studies with fluorescein, were analysed on a Waters BEH C18 1.7 µm column, 2.1 × 50 mm, with nanopure water (0.1% TFA) (A) and pure acetonitrile (B) applying a gradient elution. The start condition was 100:0 (A:B), changing to 90:10 from 1 to 2 min, then to 10:90 from 2 to 4 min (or from 2 to 3 min when analysing samples for p-heptyloxyphenylglucuronide), remaining at this ratio for 0.5 min and then rapidly declining to the start condition. The flow rate was 0.6 ml/min."}, "albumin": {"test_system": "albumin", "conditions": "cited from earlier work"}}}
{"compound": "Cc1cc(=O)n(-c2ccccc2)n1C", "note": "[Antipyrine, antipyrine]", "values": [{"measurement": "clearance", "setting": "in vivo", "value": 3, "unit": "mL/min"}, {"measurement": "Transplacental clearance value", "setting": "[1]", "value": 7.47, "unit": "mL/min/kg"}]}
{"compound": "O=C1OC2(c3ccc(O)cc3Oc3cc(O)ccc32)c2ccccc21", "note": "[fluorescein, reference compound]", "values": [{"measurement": "P app / transport fold lower than antipyrine", "setting": "BeWo cells; BeWo", "value": 11, "unit": "fold"}]}
{"compound": "CCCCCCCOc1ccc(O)cc1", "note": "[p-Heptyloxyphenol, p-heptyloxyphenol]", "values": [{"measurement": "CLPL, predicted rat transplacental clearance", "setting": "BeWo cells", "value": 0.026, "unit": "L/h"}, {"measurement": "Embryotoxic potency when hepatocytes were added", "setting": "whole embryo culture", "value": "greatly reduced"}, {"measurement": "Concentration in EST culture medium over time", "setting": "[2]", "value": "stable"}, {"measurement": "ka, predicted oral absorption coefficient", "setting": "Caco-2 cells", "value": 6.34, "unit": "h⁻¹"}, {"measurement": "Km", "setting": "rat liver microsomes", "value": "2.1 ± 0.6", "unit": "µM"}, {"measurement": "Scaled Vmax(app)", "setting": "rat liver microsomes", "value": 137, "unit": "µmol/h/g liver"}, {"measurement": "Vmax(app) glucuronidation (± SD)", "setting": "rat liver microsomes; rat liver microsomes, 10 mM UDPGA, alamethicin activated", "value": "60 ± 4.5 nmol/min/mg microsomal protein"}, {"measurement": "Fraction bound to albumin", "setting": "albumin", "value": 0.99}]}
